The results in this text go back to PubChem BioAssay (NCI).

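Compound exposure: 48 hours, 5 concentrations, 96-well plates. Abbreviation: GI50, concentration required for 50% inhibition of growth. The concentration for full growth arrest is given as TGI.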

Some test systems named below: MOLT-4 leukemia; LOX IMVI melanoma; SK-MEL-28 melanoma; KM12 colon; UACC-257 melanoma; SW-620 colon; NCI-H226 lung; SNB-75 CNS; T-47D breast; A498 renal.
What all share (assay): NCI-60 cell line screen, 48 h

For `COC(=O)CCc1c[nH]c2ccc(N(CCCl)CCCl)cc12`, the GI50 in the assay with MOLT-4 leukemia was 0.826 µM; in the assay with LOX IMVI melanoma it was 1.39 µM; in the assay with SK-MEL-28 melanoma, 10.5 µM; in the assay on KM12 colon it was 10.6 µM; in the assay with UACC-257 melanoma, 5.21 µM; in the assay with SW-620 colon, 3.41 µM. In addition, the GI50 in the assay with NCI-H226 lung is 1.53 µM; in the assay on SNB-75 CNS, 1.04 µM; in the assay on T-47D breast, 1.16 µM; with A498 renal, 3.4 µM. The TGI in the assay on MOLT-4 leukemia is more than 100 µM; with LOX IMVI melanoma, more than 36.2 µM; in the assay with SK-MEL-28 melanoma, 33.6 µM; with KM12 colon it was 36.1 µM; in the assay with UACC-257 melanoma, 34.3 µM; in the assay with SW-620 colon, 37 µM. The TGI with NCI-H226 lung was determined as 41 µM; in the assay with SNB-75 CNS it was 11.6 µM; in the assay with T-47D breast it was 16.4 µM; in the assay on A498 renal, 18.2 µM.
For `O=c1c(Oc2ccc(F)cc2F)cc2cnc(NC3CCOCC3)nc2n1CCCO`, the GI50 with MOLT-4 leukemia, with LOX IMVI melanoma, with SK-MEL-28 melanoma, in the assay with KM12 colon, with UACC-257 melanoma and in the assay with SW-620 colon was more than 25 µM in each case. Also, the GI50 in the assay on NCI-H226 lung was more than 25 µM; in the assay on SNB-75 CNS, 24.4 µM; in the assay with T-47D breast, more than 25 µM; in the assay on A498 renal, more than 18.3 µM. The TGI in the assay with MOLT-4 leukemia, in the assay on LOX IMVI melanoma, in the assay with SK-MEL-28 melanoma, with KM12 colon, in the assay on UACC-257 melanoma and in the assay on SW-620 colon was more than 25 µM each time. For the same compound, the TGI in the assay with NCI-H226 lung, with SNB-75 CNS, with T-47D breast and with A498 renal was more than 25 µM each time.
For the compound `C#Cc1cccc(N2C(=O)CCC2=O)c1`, the TGI in the assay with MOLT-4 leukemia stood at 23 µM; with LOX IMVI melanoma it was 32 µM; in the assay on SK-MEL-28 melanoma, 32.3 µM; in the assay on KM12 colon, 19.5 µM; in the assay on UACC-257 melanoma it was 29.9 µM; in the assay with SW-620 colon it was 19.2 µM. Further, the TGI in the assay with NCI-H226 lung is 35 µM; in the assay on SNB-75 CNS, 26.8 µM; in the assay with T-47D breast, 56.8 µM; in the assay with A498 renal it was 29.5 µM.
On to `COc1ccc(C(=O)/C=C/c2ccc(C)cc2)cc1OC`, for which the GI50 in the assay on MOLT-4 leukemia is 16.6 µM; in the assay with LOX IMVI melanoma, 13 µM; in the assay with SK-MEL-28 melanoma it was 16.5 µM; in the assay on KM12 colon, 5.68 µM; in the assay with UACC-257 melanoma it was 16.2 µM; in the assay on SW-620 colon it was 10.2 µM. Further, the GI50 is 13.5 µM in the assay on NCI-H226 lung, 8.93 µM in the assay on SNB-75 CNS, 3.05 µM in the assay on T-47D breast and 12.5 µM in the assay with A498 renal. Besides, the TGI in the assay with MOLT-4 leukemia was 47.2 µM; in the assay with LOX IMVI melanoma it was 25.6 µM; in the assay on SK-MEL-28 melanoma, 30.1 µM; in the assay on KM12 colon it was 19 µM; with UACC-257 melanoma it was 30.3 µM; with SW-620 colon, 21.8 µM. In addition, the TGI with NCI-H226 lung is 31.5 µM; with SNB-75 CNS, 21.3 µM; with T-47D breast, 15.8 µM; in the assay on A498 renal it was 25 µM.
For `OCc1ccc(-c2ccc(-c3ccc(CO)o3)[se]2)o1`, the GI50 in the assay with MOLT-4 leukemia was 41.2 µM; in the assay on LOX IMVI melanoma, more than 91.9 µM; in the assay with SK-MEL-28 melanoma, more than 100 µM; in the assay on KM12 colon it was more than 74.3 µM; in the assay with UACC-257 melanoma, 1.49 µM; in the assay with SW-620 colon, more than 100 µM. Further, the GI50 with NCI-H226 lung was 0.3 µM; in the assay with SNB-75 CNS, 37 µM; with T-47D breast it was 15.7 µM; in the assay with A498 renal it was 0.17 µM. Moreover, the TGI is more than 100 µM in the assay with MOLT-4 leukemia; more than 100 µM with LOX IMVI melanoma; more than 100 µM in the assay on SK-MEL-28 melanoma; more than 100 µM in the assay with KM12 colon; more than 20.8 µM in the assay on UACC-257 melanoma; more than 100 µM in the assay on SW-620 colon. The TGI is 1.55 µM with NCI-H226 lung, more than 100 µM in the assay on SNB-75 CNS, more than 100 µM in the assay on T-47D breast and 0.375 µM in the assay with A498 renal.
As to `COc1cc(C#Cc2ccc(=O)oc2C#Cc2ccccc2)cc(OC)c1OC`, the GI50 in the assay on MOLT-4 leukemia is 3.43 µM; in the assay with LOX IMVI melanoma, 1.1 µM; with SK-MEL-28 melanoma it was 2.64 µM; in the assay with KM12 colon, 15.1 µM; in the assay with UACC-257 melanoma it was 6.81 µM; with SW-620 colon, 2.04 µM. The GI50 in the assay on NCI-H226 lung is 2.59 µM; in the assay on SNB-75 CNS, 2.7 µM; in the assay with T-47D breast, 2.27 µM; in the assay with A498 renal, 19.1 µM. The TGI in the assay on MOLT-4 leukemia was more than 45.1 µM; with LOX IMVI melanoma it was 2.6 µM; in the assay with SK-MEL-28 melanoma, 7.22 µM; in the assay with KM12 colon, 44.8 µM; with UACC-257 melanoma, 15.6 µM; in the assay on SW-620 colon, 4.28 µM. The TGI amounted to 7.41 µM in the assay on NCI-H226 lung, 7.62 µM in the assay on SNB-75 CNS, 6.22 µM with T-47D breast and 34.5 µM in the assay on A498 renal.
With `O=C(CO[N+](=O)[O-])Nc1ccc(C(=O)/C=C/c2ccc(Cl)cc2)cc1`, the GI50 in the assay on MOLT-4 leukemia is 4.68 µM; with LOX IMVI melanoma, 1.59 µM; with SK-MEL-28 melanoma, 4.96 µM; with KM12 colon it was 1.54 µM; with UACC-257 melanoma it was 4.33 µM; in the assay with SW-620 colon it was 1.44 µM. Besides, the GI50 is 5.15 µM with NCI-H226 lung, 3.19 µM in the assay on SNB-75 CNS, 3.26 µM with T-47D breast and 15.4 µM with A498 renal. The TGI in the assay on MOLT-4 leukemia is 69.4 µM; in the assay with LOX IMVI melanoma it was 3.51 µM; in the assay on SK-MEL-28 melanoma, 18.1 µM; in the assay with KM12 colon, 3.1 µM; in the assay on UACC-257 melanoma, 15.9 µM; with SW-620 colon, 2.88 µM. For the same compound, the TGI in the assay on NCI-H226 lung stood at 29 µM; in the assay with SNB-75 CNS, 17.6 µM; with T-47D breast it was 14.9 µM; in the assay on A498 renal, 54.9 µM.
Regarding `Oc1[nH]c2ccccc2c1N=Nc1ccccn1`, the TGI in the assay on MOLT-4 leukemia is more than 100 µM; in the assay with LOX IMVI melanoma, more than 100 µM; with SK-MEL-28 melanoma, more than 100 µM; in the assay with KM12 colon, 97.8 µM; in the assay with UACC-257 melanoma, more than 100 µM; with SW-620 colon, more than 100 µM. The TGI with NCI-H226 lung is 61.7 µM; in the assay with SNB-75 CNS, 86.6 µM; with T-47D breast, more than 100 µM; with A498 renal, 70.6 µM.
Consider `CC(C(=O)c1ccccc1)C(c1ccccc1)N1CCOCC1` (stereo not given), for which the TGI with MOLT-4 leukemia, in the assay on LOX IMVI melanoma, with SK-MEL-28 melanoma, in the assay on KM12 colon, with UACC-257 melanoma and with SW-620 colon was more than 100 µM each time. For the same compound, the TGI in the assay with NCI-H226 lung, in the assay with SNB-75 CNS, with T-47D breast and in the assay with A498 renal was more than 100 µM throughout.
